# Experimental data as given in US20260335398A1, “METHODS FOR TREATING PANCREATIC CANCER WITH A COMBINATION OF DES-METHYL PATEAMINE A AND A CLASS I HDAC INHIBITOR” (Baylor University, priority 2023, published 2026).
# What was measured:
# [1] = test system: MIA PaCa-2 and KLM cells; experiment: Replication fork dynamics; format: cell-based; conditions: 24 hours
# Source text: Having observed R-loop accumulation following treatment with the combination, it was hypothesized that hypertranscription, persistent hyperacetylation, and R-loop accumulation could increase the incidence of transcription replication conflicts, genome instability, and DNA damage and contribute to cell death. In response to DNA damage, replication protein A2 (RPA2) is phosphorylated at multiple sites by different protein kinases, including ATM, ATR, and DNA-PK, while the serine threonine-protein kinase, Chk1 (checkpoint kinase 1), is phosphorylated and activated by ATR. […] Drug treatments were for 24 hours (i.e., romidepsin treatment in combination or single agent romidepsin was 6 hours followed by 18-hour incubation with 2 nM DMPatA or with fresh medium respectively).
# [2] = test system: H3K9ac; experiment: Immunohistochemistry of H3K9ac in MIA PaCa-2 xenograft tumor tissue (FIG. 2C); format: in vivo, athymic nude mice; conditions: IHC, tumors at end of study
# Source text: (§1) FIGS. 2A and 2B illustrate the results of a MIA PaCa-2 xenograft model of PDAC in male athymic nude mice. FIG. 2A compares tumor growth (mm^3) in mice treated with the indicated concentrations of combination, romidepsin and DMPatA using IP route and vehicles described in the materials and methods section below. FIG. 2B compares body weight (g) of mice treated with the combination and single agents following treatment. FIGS. 2C and 2D compare quantification of H3K9ac and c-MYC antibodies. Frozen sections from MIA PaCa-2 xenograft tumor tissues were subjected to immunohistochemical analysis using antibodies against H3K9ac, and c-MYC. Fluorescence images were captured using fluorescent microscopy and the fluorescent signal from H3K9ac and c-MYC antibodies were quantified. To quantify fluorescence intensity at least 500 cells per condition were measured for each antibody at 40× magnification. The median of the signal intensity is shown. Statistical significance was determined by one-way ANOVA using Tukey multiple comparisons test, ****p value<0.0001.
# Additionally, snap-frozen tumor tissue samples from the mice treated with vehicle, single agents, and the combination were collected at the end of the study. These samples were sectioned, and the levels of H3K9ac and c-MYC proteins in tumor tissues were assessed by immunohistochemistry. […]
# [3] = test system: MIA PaCa-2 xenograft; experiment: MIA PaCa-2 xenograft model of PDAC, tumor growth (FIG. 2A); format: in vivo, athymic nude mice; conditions: IP; romidepsin 0.75 mg/kg, DMPatA 0.075 mg/kg; once every four days 2 weeks, then every seven days 5-6 weeks
# Source text: as §1
# Animal studies were performed according to Institutional Animal Care and Use Committee (IACUC) protocol number AC-AABD2601. Following the establishment of initial dose levels for individual drugs, efficacy of the combination and single agents in a MIA PaCa-2 xenograft model was assessed at a tolerable dose and schedule. […]
# [4] = test system: KLM and MIA PaCa-2 cells; experiment: Nascent RNA synthesis by EU labeling (FIG. 9B); format: cell-based; conditions: total 18 h, 5-EU incorporation
# Experimental: FIG. 9B left panel compares EU-labeled nascent RNA and (Hoechst counterstain) in KLM cells treated with combination and single agents. Scale bar: 1 μm. FIG. 9B right panels present quantification of fluorescence intensities of nascent RNA synthesis in both KLM and MIA PaCa-2 cell lines. Statistical significance was determined by one-way ANOVA using Tukey multiple comparison's test, ****p value<0.0001, **p value<0.0002, **p value<0.002.
# This apparent hypertranscription observed with the combination, was confirmed by the increase in nascent RNA output above the level of normal cells, following treatment for a total of 18 hours (i.e., 6-hour romidepsin followed by 12-hour washout with or without 2 nM DMPatA), quantified using incorporation of the modified RNA precursor 5-EU. […] Because HDAC inhibitors cause histone hyperacetylation and having observed the increase in gene expression following treatment with the combination, the impact of the combination on histone acetylation was assessed.
# To detect changes in the global RNA transcription we used the Click-iT RNA Alexa Fluor 594 Imaging Kit (Invitrogen, #C10330). Briefly, cells were cultured in complete media and pulsed for 60 min with alkyne-modified nucleoside, 5-ethynyl uridine (EU) at a final concentration of 1 mM. […]
smiles,measurement,setting,value
C/C=C1\NC(=O)[C@H]2CSSCC/C=C/[C@H](CC(=O)N[C@H](C(C)C)C(=O)N2)OC(=O)[C@H](C(C)C)NC1=O [romidepsin],replication fork speed,[1],significant reduction
same,H3K9ac level in tumor,[2],increased significantly
same,tumor volume,[3],regression in tumor volume
same,nascent RNA (mRNA) synthesis,[4],increase in RNA synthesis
